Literature values in patent US20060240101A1, “Orally disintegrating pharmaceutical tablet formulations of olanzapine” (priority 2005, published 2006).

Details: for water solubility: at 20° C.

Row | water solubility | SMILES | solubility in water (2005 Physician Desk Reference label information for Zyprexa)
1 | approximately 250 g/l | OC[C@@H](O)[C@@H](O)[C@H](O)[C@H](O)CO [Pearlitol® 50C, mannitol] | –
2 | approximately 170 g/l | OC[C@@H](O)[C@@H](O)[C@H](O)[C@H](O)CO [Pearlitol® 200 SD, mannitol] | –
3 | – | Cc1cc2c(s1)Nc1ccccc1N=C2N1CCN(C)CC1 [olanzapine, 2-methyl-4-(4-methyl-1-piperanzinyl)-10H-thieno[2,3-b][1,5] benzodiazepine] | insoluble in water
